Data as given in patent US9101638B2, “Boronic acid derivatives and therapeutic uses thereof” (Rempex Pharmaceuticals, Inc., priority 2013, dated 2015).
pKi: −log10 of the molar value.

Legend:
KP1005 (CTX-M-14) [1] = assay: Potentiation of aztreonam, strain KP1005; assay type: cell-based
KP1009 (CTX-M-15) [2] = assay: Potentiation of aztreonam, strain KP1009; assay type: cell-based
ec308 (SHV-5) [3] = assay: Potentiation of aztreonam, strain ec308; assay type: cell-based; details: minimum BLI concentration inhibiting growth with 4 μg/mL aztreonam
ec302 (TEM-10) [4] = assay: Potentiation of aztreonam, strain ec302; assay type: cell-based
KP1004 (K-2) = assay: Potentiation of aztreonam, strain KP1004; assay type: cell-based; details: minimum BLI concentration inhibiting growth with 4 μg/mL aztreonam
ECL1002 = assay: Potentiation of aztreonam, strain ECL1002; assay type: cell-based; details: minimum BLI concentration inhibiting growth with 4 μg/mL aztreonam
EC1010 (CMY-6) [5] = assay: Potentiation of aztreonam, strain EC1010; assay type: cell-based
ec308 (SHV-5) [6] = assay: Potentiation of tigemonam, strain ec308; assay type: cell-based
ec302 (TEM-10) [7] = assay: Potentiation of tigemonam, strain ec302; assay type: cell-based
EC1010 (CMY-6) [8] = assay type: cell-based
CTX-M-14 = CTX-M-14 (Escherichia coli, UniProt Q9L5C7); assay: Inhibition of nitrocefin cleavage by purified CTX-M-14; assay type: biochemical; details: nitrocefin reporter substrate, purified enzyme; read-out: Ki (CTX-M-14, NCF)
Chain of CTX-M-14 (Q9L5C7 entry or part of it): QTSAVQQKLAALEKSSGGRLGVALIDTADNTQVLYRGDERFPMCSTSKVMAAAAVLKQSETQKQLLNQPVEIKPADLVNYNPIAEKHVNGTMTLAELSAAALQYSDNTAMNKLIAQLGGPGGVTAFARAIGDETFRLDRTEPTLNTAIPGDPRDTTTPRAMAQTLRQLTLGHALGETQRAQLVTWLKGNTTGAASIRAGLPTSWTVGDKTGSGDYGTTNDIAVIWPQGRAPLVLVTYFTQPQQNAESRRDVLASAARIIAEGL
Method: (§1) Purified enzymes were mixed with various concentrations of inhibitors in reaction buffer and incubated for 10 min at room temperature. Nitrocefin was added and substrate cleavage profiles were recorded at 490 nm every 10 sec for 10 min.

SHV-12 = SHV-12 (Klebsiella pneumoniae, UniProt P0AD64, E235K/G234S/L31Q); assay: Inhibition of nitrocefin cleavage by purified SHV-12; assay type: biochemical; details: nitrocefin reporter substrate, purified enzyme; read-out: Ki (SHV-12, NCF)
Chain of SHV-12 (P0AD64 22-286 L31Q/G234S/E235K): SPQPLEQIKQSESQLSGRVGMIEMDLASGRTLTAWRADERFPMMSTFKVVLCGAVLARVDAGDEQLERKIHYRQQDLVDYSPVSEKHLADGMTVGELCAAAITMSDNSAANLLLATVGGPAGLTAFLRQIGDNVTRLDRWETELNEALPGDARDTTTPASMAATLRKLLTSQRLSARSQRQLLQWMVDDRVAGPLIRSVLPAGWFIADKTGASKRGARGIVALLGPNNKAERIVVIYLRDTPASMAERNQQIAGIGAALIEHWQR
Outline: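 Steps: enzyme plus inhibitor dilutions in reaction buffer; 10 min at room temperature; add nitrocefin; read absorbance at 490 nm each 10 sec for 10 min.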

P99 = P99 (Enterobacter cloacae, UniProt P05364); assay: Inhibition of nitrocefin cleavage by purified P99; assay type: biochemical; details: nitrocefin reporter substrate, purified enzyme; read-out: Ki (P99, NCF)
Chain of P99 (P05364 21-381): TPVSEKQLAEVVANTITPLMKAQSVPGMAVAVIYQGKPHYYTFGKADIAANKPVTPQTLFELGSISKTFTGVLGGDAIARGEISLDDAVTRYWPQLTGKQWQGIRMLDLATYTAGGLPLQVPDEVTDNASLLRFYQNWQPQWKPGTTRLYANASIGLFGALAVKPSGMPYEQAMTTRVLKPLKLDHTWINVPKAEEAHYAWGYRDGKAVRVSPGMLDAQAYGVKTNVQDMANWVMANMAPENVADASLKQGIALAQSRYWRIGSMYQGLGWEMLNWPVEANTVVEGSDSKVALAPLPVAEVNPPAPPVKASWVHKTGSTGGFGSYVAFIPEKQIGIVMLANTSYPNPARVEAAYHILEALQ
Method: as §1

CMY-2 = CMY-2 (Klebsiella pneumoniae, UniProt Q48434); assay: Inhibition of nitrocefin cleavage by purified CMY-2; assay type: biochemical; details: nitrocefin reporter substrate, purified enzyme; read-out: Ki (CMY-2, NCF)
Chain of CMY-2 (Q48434 21-381, species assumed): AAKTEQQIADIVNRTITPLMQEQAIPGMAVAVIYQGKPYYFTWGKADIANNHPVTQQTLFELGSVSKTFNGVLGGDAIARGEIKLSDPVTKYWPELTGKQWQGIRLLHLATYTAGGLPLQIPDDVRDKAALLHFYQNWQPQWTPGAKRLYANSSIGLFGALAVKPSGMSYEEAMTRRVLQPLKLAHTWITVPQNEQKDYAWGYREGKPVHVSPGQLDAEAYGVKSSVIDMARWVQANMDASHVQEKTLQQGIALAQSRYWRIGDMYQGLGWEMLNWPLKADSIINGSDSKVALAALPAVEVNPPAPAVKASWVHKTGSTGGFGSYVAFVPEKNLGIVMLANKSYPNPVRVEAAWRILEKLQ
Method: as §1

OXA-48 = OXA-48 (Klebsiella pneumoniae, UniProt Q6XEC0); assay: Inhibition of nitrocefin cleavage by purified OXA-48; assay type: biochemical; details: nitrocefin reporter substrate, purified enzyme; read-out: Ki (OXA-48, NCF)
Chain of OXA-48 (Q6XEC0 23-265 limits assumed): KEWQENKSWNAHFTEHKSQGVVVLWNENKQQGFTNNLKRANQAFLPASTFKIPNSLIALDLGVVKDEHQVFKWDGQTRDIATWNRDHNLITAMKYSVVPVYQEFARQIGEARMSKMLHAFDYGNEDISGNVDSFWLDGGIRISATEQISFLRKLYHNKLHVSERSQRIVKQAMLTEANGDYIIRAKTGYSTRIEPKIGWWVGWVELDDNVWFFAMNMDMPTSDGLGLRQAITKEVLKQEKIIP
Method: as §1

PAM1032/KPC-2 = assay: Biapenem potentiation in PAM1032/KPC-2 (MexAB-OprM overexpressed); assay type: cell-based, Pseudomonas aeruginosa; details: BLI potency to decrease biapenem MIC 64-fold, 32 to 0.5 μg/ml; efflux proficient strain
Method: (§2) Efflux of BLIs from Pseudomonas aeruginosa by the MexAB-OprM efflux pump was also evaluated. […] Due to expression of KPC-2 both strains became resistant to biapenem. […] Potency of BLIs to potentiate biapenem in these strains was determined. […] The ratio of MPC64 values for each BLI in PAM1032/KPC-2 (efflux proficient) and PAM1154/KPC-2 (efflux deficient) was determined to generate the Efflux Index (EI).

PAM1154/KPC-2 = assay: Biapenem potentiation in PAM1154/KPC-2 (MexAB-OprM lacking); assay type: cell-based, Pseudomonas aeruginosa
Method: as §2

KP1009 (CTX-M-15) [9] = assay: Potentiation of tigemonam, strain KP1009
KP1005 (CTX-M-14) [10] = system: KP1005 (CTX-M-14)
KP1010 (SHV-12) = assay: Potentiation of tigemonam, strain KP1010; details: strain KP1010 SHV-12, tigemonam alone
[11] = minimum BLI concentration inhibiting growth with 4 μg/mL tigemonam

Compound: NC(=O)C(=O)N[C@H]1Cc2cccc(C(=O)O)c2OB1O [Compound 17, (R)-3-(2-amino-2-oxoacetamido)-2-hydroxy-3,4-dihydro-2H-benzo[e][1,2]oxaborinine-8-carboxylic acid]
- AZT MPC4 CTX-M-14 KP1005 (KP1005 (CTX-M-14) [1]): Y (key: X = MIC of less than 1 μg/mL; Y = MIC of 1 μg/mL to 10 μg/mL; Z = MIC of greater than 10 μg/mL)
- AZT MPC4 CTX-M-15 KP1009 (KP1009 (CTX-M-15) [2]): Y (key: X = MIC of less than 1 μg/mL; Y = MIC of 1 μg/mL to 10 μg/mL; Z = MIC of greater than 10 μg/mL)
- AZT MPC4 SHV-5 ec308 (ec308 (SHV-5) [3]): X (X = MIC of less than 1 μg/mL)
- AZT MPC4 TEM-10 ec302 (ec302 (TEM-10) [4]): X (key: X = MIC of less than 1 μg/mL; Y = MIC of 1 μg/mL to 10 μg/mL; Z = MIC of greater than 10 μg/mL)
- AZT MPC4 K-2 KP1004 (KP1004 (K-2)): Y (Y = MIC of 1 μg/mL to 10 μg/mL)
- AZT MPC4 ECL1002 (ECL1002): Y (Y = MIC of 1 μg/mL to 10 μg/mL)
- AZT MPC4 CMY-6 EC1010 (EC1010 (CMY-6) [5]): Y (key: X = MIC of less than 1 μg/mL; Y = MIC of 1 μg/mL to 10 μg/mL; Z = MIC of greater than 10 μg/mL)
- TIG MPC4 SHV-5 ec308 (ec308 (SHV-5) [6]; [11]): Y (Y = MIC of 1 μg/mL to 10 μg/mL)
- TIG MPC4 TEM-10 ec302 (ec302 (TEM-10) [7]): X (key: X = MIC of less than 1 μg/mL; Y = MIC of 1 μg/mL to 10 μg/mL; Z = MIC of greater than 10 μg/mL)
- TIG MPC4 CMY-6 EC1010 (EC1010 (CMY-6) [8]): X (key: X = MIC of less than 1 μg/mL; Y = MIC of 1 μg/mL to 10 μg/mL; Z = MIC of greater than 10 μg/mL)
- pKi (CTX-M-14): 8.00 to 9.00
- pKi (SHV-12): 8.00 to 9.00
- pKi (P99): 8.00 to 9.00
- pKi (CMY-2): 8.00 to 9.00
- pKi (OXA-48): 8.00 to 9.00
- PAM1032/KPC-2 Biapenem MPC64 (PAM1032/KPC-2): Z (Z Greater than 40)
- PAM1154/KPC-2 Biapenem MPC64 (PAM1154/KPC-2): X (key: X = Less than 10; Y = 10 to 40; Z Greater than 40)
- TIG MPC4 CTX-M-15 KP1009 (KP1009 (CTX-M-15) [9]; [11]): Y (Y = MIC of 1 μg/mL to 10 μg/mL)

Compound: CC1(C)[C@H](NC(=O)/C(=N\OCC(=O)O)c2csc(N)n2)C(=O)N1OS(=O)(=O)O [Tigemonam, reference compound]
- Tigemonam MIC (ec308 (SHV-5) [6]; strain ec308 SHV-5, tigemonam alone): >64 µg/mL
- Tigemonam MIC (ec302 (TEM-10) [7]; strain ec302 TEM-10, tigemonam alone): >64 µg/mL
- Tigemonam MIC (EC1010 (CMY-6) [8]; strain EC1010 CMY-6, tigemonam alone): 16 µg/mL
- Tigemonam MIC (KP1005 (CTX-M-14) [10]): >64 µg/mL
- Tigemonam MIC (KP1009 (CTX-M-15) [9]; strain KP1009 CTX-M-15, tigemonam alone): >64 µg/mL
- Tigemonam MIC (KP1010 (SHV-12)): >64 µg/mL
